In article PMC7316745, “A small-molecule ARTS mimetic promotes apoptosis through degradation of both XIAP and Bcl-2” (Cell Death & Disease, 2020):

Key:
ACHN = assay: cells; parameters: Sulforhodamine B growth/viability assay on tumour cell line panel (Oncolead), six dilutions, compound replenished daily; details: Homo sapiens, ACHN; 72 h, SRB; read-out: Supplementary table 1 / A4 IC50
Protocol: (§1) Screening of 94 different cancer cell lines spanning over 18 human tissues was performed by Oncolead Ltd. The company used an identical platform to the one NIH, NCI-60 uses to assess the effect of a compound on the viability of a variety of tumour cell lines. Briefly, cells are treated with a series of six dilutions of a compound for 72 h (compound is replenished daily). After 72 h, cells were fixed (living cells are attached to the plate), and then washed to remove dead and dying cells. Cells were then stained with a dye (sulforhodamine B) that dyes all proteins purple, which is measured by a plate reader and provides quantification of living cells. The number of cells treated with the compound is compared to the number of cells treated with DMSO (solvent). The inhibitory concentration (IC) value was calculated by taking the number of cells after 72 h of treatment and dividing by the number of cells after 72 h treatment with DMSO (C). IC50 is the value calculated from the dose–response plot, which is the concentration of the compound that has 50% decrease of the IC. To determine the specificity of A4 killing for various types of cancer, a panel of 94 cancer cell lines representing 18 different types of cancers were tested. The IC50 values for each cell line treated with A4 were determined (Oncolead Ltd). The cancers that were most sensitive to A4 killing were of haematological origin (8/12 different cell lines), melanoma (3/5 lines), pancreatic cancer and 4/7 lung cancers. Importantly, peripheral blood mononuclear cells (PBMCs), representing healthy normal cells, and 184A1, a normal human epithelium mammary gland cell, were not killed by A4 (Fig. 5a, Supplementary Table 1 and Fig. 5cI, respectively). To explore whether the levels of XIAP and Bcl-2 protein affect the sensitivity to A4, we analysed the available web proteomes and looked for a correlation. While data regarding XIAP expression levels were found in most proteomes (28 of 32 proteomes), Bcl-2 expression data were only detected in few (9 of 32 proteomes) (data not shown). A significant correlation was found between XIAP expression levels (ratio to actin, GAPDH) and the sensitivity to A4 (IC50, µM) in breast, ovary and kidney carcinomas (Fig. 5bI, II and Supplementary Tables 1 and 2). Cancer cell lines with high levels of XIAP were particularly sensitive to the killing effect of A4 (Fig. 5bI, II and Supplementary Tables 1 and 2). […] To further confirm that A4 functions as a specific antagonist for XIAP, we performed a SKOV-3 rescue assay. SKOV-3 ovarian carcinoma cells are highly sensitive to SMs[49]. SMs act by antagonizing cIAPs, an event that leads to cell death when complemented by an XIAP-dependent increase in TNFα production[47],[48],[58]. In SKOV-3 cells, XIAP is required for TNFα production, which recruits cIAP into a complex that activates caspase-8 and apoptosis through the extrinsic pathway (Fig. 6a)[49]. Knockdown of XIAP in SKOV-3 cells bestowed resistance to SMs[49]. We utilized this assay to investigate the specificity of A4 for XIAP compared to cIAPs. Treatment with 1 μM of the SM Birinapant for […]

Caco-2 = assay: cells; parameters: Sulforhodamine B growth/viability assay on tumour cell line panel (Oncolead), six dilutions, compound replenished daily; details: Homo sapiens, Caco-2; 72 h, SRB; read-out: Supplementary table 1 / A4 IC50
Protocol: as §1

SW620 = assay: cells; parameters: Sulforhodamine B growth/viability assay on tumour cell line panel (Oncolead), six dilutions, compound replenished daily; details: Homo sapiens, SW-620; 72 h, SRB; read-out: Supplementary table 1 / A4 IC50
Protocol: as §1

OVCAR3 = assay: cells; parameters: Sulforhodamine B growth/viability assay on tumour cell line panel (Oncolead), six dilutions, compound replenished daily; details: Homo sapiens, OVCAR-3; 72 h, SRB; read-out: Supplementary table 1 / A4 IC50
Protocol: as §1

HS578T = assay: cells; parameters: Sulforhodamine B growth/viability assay on tumour cell line panel (Oncolead), six dilutions, compound replenished daily; details: Homo sapiens, Hs-578T; 72 h, SRB; read-out: Supplementary table 1 / A4 IC50
Protocol: as §1

MDAMB231 = assay: cells; parameters: Sulforhodamine B growth/viability assay on tumour cell line panel (Oncolead), six dilutions, compound replenished daily; details: Homo sapiens, MDA-MB-231; 72 h, SRB; read-out: Supplementary table 1 / A4 IC50
Protocol: as §1

UO31 = assay: cells; parameters: Sulforhodamine B growth/viability assay on tumour cell line panel (Oncolead), six dilutions, compound replenished daily; details: Homo sapiens, UO-31; 72 h, SRB; read-out: Supplementary table 1 / A4 IC50
Protocol: as §1

DLD1 = assay: cells; parameters: Sulforhodamine B growth/viability assay on tumour cell line panel (Oncolead), six dilutions, compound replenished daily; details: Homo sapiens, DLD-1; 72 h, SRB; read-out: Supplementary table 1 / A4 IC50
Protocol: as §1

MDAMB468 = assay: cells; parameters: Sulforhodamine B growth/viability assay on tumour cell line panel (Oncolead), six dilutions, compound replenished daily; details: Homo sapiens, MDA-MB-468; 72 h, SRB; read-out: Supplementary table 1 / A4 IC50
Protocol: as §1

COLO678 = assay: cells; parameters: Sulforhodamine B growth/viability assay on tumour cell line panel (Oncolead), six dilutions, compound replenished daily; details: Homo sapiens, COLO-678; 72 h, SRB; read-out: Supplementary table 1 / A4 IC50
Protocol: as §1

MDAMB436 = assay: cells; parameters: Sulforhodamine B growth/viability assay on tumour cell line panel (Oncolead), six dilutions, compound replenished daily; details: Homo sapiens, MDA-MB-436; 72 h, SRB; read-out: Supplementary table 1 / A4 IC50
Protocol: as §1

HCT116 = assay: cells; parameters: Sulforhodamine B growth/viability assay on tumour cell line panel (Oncolead), six dilutions, compound replenished daily; details: Homo sapiens, HCT-116; 72 h, SRB; read-out: Supplementary table 1 / A4 IC50
Protocol: as §1

OVCAR4 = assay: cells; parameters: Sulforhodamine B growth/viability assay on tumour cell line panel (Oncolead), six dilutions, compound replenished daily; details: Homo sapiens, OVCAR-4; 72 h, SRB; read-out: Supplementary table 1 / A4 IC50
Protocol: as §1

Caki1 = assay: cells; parameters: Sulforhodamine B growth/viability assay on tumour cell line panel (Oncolead), six dilutions, compound replenished daily; details: Homo sapiens, CAKI-1; 72 h, SRB; read-out: Supplementary table 1 / A4 IC50
Protocol: as §1

MCF-7 = assay: cells; parameters: Sulforhodamine B growth/viability assay on tumour cell line panel (Oncolead), six dilutions, compound replenished daily; details: Homo sapiens, MCF7; 72 h, SRB; read-out: Supplementary table 1 / A4 IC50
Protocol: as §1

SKBR3 = assay: cells; parameters: Sulforhodamine B growth/viability assay on tumour cell line panel (Oncolead), six dilutions, compound replenished daily; details: Homo sapiens, SK-BR-3; 72 h, SRB; read-out: Supplementary table 1 / A4 IC50
Protocol: as §1

HT-29 = assay: cells; parameters: Sulforhodamine B growth/viability assay on tumour cell line panel (Oncolead), six dilutions, compound replenished daily; details: Homo sapiens, HT-29; 72 h, SRB; read-out: Supplementary table 1 / A4 IC50
Protocol: as §1

COLO205 = assay: cells; parameters: Sulforhodamine B growth/viability assay on tumour cell line panel (Oncolead), six dilutions, compound replenished daily; details: Homo sapiens, COLO 205; 72 h, SRB; read-out: Supplementary table 1 / A4 IC50
Protocol: as §1

786-0 = assay: cells; parameters: Sulforhodamine B growth/viability assay on tumour cell line panel (Oncolead), six dilutions, compound replenished daily; details: Homo sapiens, 786-0; 72 h, SRB; read-out: Supplementary table 1 / A4 IC50
Protocol: as §1

IGROV-1 = assay: cells; parameters: Sulforhodamine B growth/viability assay on tumour cell line panel (Oncolead), six dilutions, compound replenished daily; details: Homo sapiens, IGROV-1; 72 h, SRB; read-out: Supplementary table 1 / A4 IC50
Protocol: as §1

HCT15 = assay: cells; parameters: Sulforhodamine B growth/viability assay on tumour cell line panel (Oncolead), six dilutions, compound replenished daily; details: Homo sapiens, HCT-15; 72 h, SRB; read-out: Supplementary table 1 / A4 IC50
Protocol: as §1

SKOV-3 = assay: cells; parameters: Sulforhodamine B growth/viability assay on tumour cell line panel (Oncolead), six dilutions, compound replenished daily; details: Homo sapiens, SK-OV-3; 72 h, SRB; read-out: Supplementary table 1 / A4 IC50
Protocol: as §1

LOVO = assay: cells; parameters: Sulforhodamine B growth/viability assay on tumour cell line panel (Oncolead), six dilutions, compound replenished daily; details: Homo sapiens, LoVo; 72 h, SRB; read-out: Supplementary table 1 / A4 IC50
Protocol: as §1

HEK293 = assay: cells; parameters: Sulforhodamine B growth/viability assay on tumour cell line panel (Oncolead), six dilutions, compound replenished daily; details: Homo sapiens, HEK293; 72 h, SRB; read-out: Supplementary table 1 / A4 IC50
Protocol: as §1

XIAP = target: T1, XIAP (Homo sapiens, UniProt P98170); assay: microscale thermophoresis (MST); assay type: binding
T1 construct: recombinant untagged XIAP, NT650-labelled (maleimide coupling)
T1 sequence (P98170 whole entry): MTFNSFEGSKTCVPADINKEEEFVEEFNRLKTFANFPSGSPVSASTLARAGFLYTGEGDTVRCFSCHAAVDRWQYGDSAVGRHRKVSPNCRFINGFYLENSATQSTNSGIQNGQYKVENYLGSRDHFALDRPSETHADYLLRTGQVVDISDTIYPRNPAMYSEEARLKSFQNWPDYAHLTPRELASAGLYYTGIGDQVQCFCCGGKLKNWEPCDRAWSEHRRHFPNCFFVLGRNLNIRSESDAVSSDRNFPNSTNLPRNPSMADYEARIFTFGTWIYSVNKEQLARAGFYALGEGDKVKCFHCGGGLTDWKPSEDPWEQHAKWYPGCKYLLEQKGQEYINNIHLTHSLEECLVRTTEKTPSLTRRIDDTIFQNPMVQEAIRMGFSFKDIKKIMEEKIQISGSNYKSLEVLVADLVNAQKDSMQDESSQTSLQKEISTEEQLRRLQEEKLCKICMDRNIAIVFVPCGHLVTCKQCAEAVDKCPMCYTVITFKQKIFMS

IC50 (ACHN): 5.99 µM
IC50 (Caco-2): 8.14 µM
IC50 (SW620): 10.4 µM
IC50 (OVCAR3): 8.4 µM
IC50 (MDAMB231): 10.1 µM
IC50 (DLD1): 8.24 µM
IC50 (MDAMB468): 6.22 µM
IC50 (COLO678): 14.4 µM
IC50 (MDAMB436): 7.16 µM
IC50 (HCT116): 11.2 µM
IC50 (OVCAR4): 9.99 µM
IC50 (MCF-7): 4.61 µM
IC50 (SKBR3): 7.98 µM
IC50 (HT-29): 1.84 µM
IC50 (COLO205): 7.38 µM
IC50 (786-0): 6.3 µM
IC50 (HCT15): 5.03 µM
IC50 (SKOV-3): 13.6 µM
IC50 (LOVO): 5.96 µM
Kd (XIAP): 0.348 ± 0.228 µM
SMILES: COC(=O)c1[nH]c2ccc(Cl)cc2c1NC(=O)CN1CCN(Cc2ccccc2)CC1 [A4, methyl 5-chloro-3-[[2-[4-(phenylmethyl)piperazin-1-yl]acetyl]amino]-1H-indole-2-carboxylat]
IC50 (HS578T): 9.56 µM
IC50 (UO31): 6.48 µM
IC50 (Caki1): 8.14 µM
IC50 (IGROV-1): 8.08 µM
IC50 (HEK293): 2.8 µM
